Source: patent publication US20180263940A1, “TREATMENT OF SKIN CONDITIONS” (priority 2015, published 2018)
“Also recorded” adds a separate entry of the source.

What was measured:
[1] = test system: E18.5 embryonic mouse dorsal skin (Lx12/Lx12 HI mutant, Lx12/+, +/+); assay: Ex vivo chamber assay of E18.5 embryonic mouse dorsal skin after HI disease acquisition, H&E; type: cell-based; settings: 4 days ex vivo
Description: Representative Haematoxylin and Eosin staining of embryonic mouse dorsal skin from two E18.5 litters, cultured ex vivo for 4 days on chamber inserts, with 1 or 10 mM mesalamine in standard culture media or vehicle alone is shown in FIG. 9. +/+ presents wild type skin. Lx12/Lx12 represents the HI mutant skin and Lx12/+ represents seemingly normal skin carrying the recessive HI mutant allele. Note once again the abnormality observed in the spinous layer, loss of the granular layer and proportional thickening of the stratum corneum in Lx12/Lx12 (HI) vehicle treated skins. Lx12/+ skins also appeared slightly abnormal relative to +/+ vehicle treated skins. […] Images are repeated in grayscale.

[2] = test system: E16.5 embryonic back skin (Abca12 Lx12/Lx12 and Lx12/+); assay: Harlequin Ichthyosis ex vivo embryo whole mount skin assay, cornified envelope thickening; type: cell-based, mouse; settings: 10 mM Mesalamine or 1 uM Acitretin, 4 days ex vivo
Description: Embryonic back skin was collected at E16.5 from across 3 litters generated by Abca12 Lx12/+ cross Abca12 Lx12/+ matings to generate Harlequin Ichthyosis embryos Abca12 Lx12/Lx12 and control siblings Abca12 Lx12/+ and Abca12+/+. The embryonic skin was then cultured 4 days on a porous membrane chamber insert with the epidermis exposed to air and dermis side in contact with media drawn through the porous membrane to permit maturation and adaptation to air. 10 mM Mesalamine or 1 uM Acitretin was supplied in the culture media and media refreshed at 48 hrs. Vehicle samples were left without drug treatment. Skins were then harvested on the 4th day and fixed in 4% PFA for 3-4 hrs then stored in 80% Ethanol until processed and embedded in paraffin wax. 8 micron sections were then cut and stained with Haematoxylin and Eosin and analysed. The percentage of skin thickness accounted for by the cornified envelope (cornified layer) was measured and results normalised as a fold change over the vehicle-treated control siblings in each assay. Wild type siblings were under represented in these litters so phenotypically normal heterozygote siblings were used as controls.

[3] = test system: E16.5 embryonic mouse dorsal skin (Lx12/Lx12 HI mutant, Lx12/+, +/+); assay: Ex vivo chamber assay of E16.5 embryonic mouse dorsal skin during Harlequin Ichthyosis (HI) disease acquisition, H&E and immunofluorescent staining; type: cell-based; settings: second E16.5 litter, 1 or 10 mM, 4 days ex vivo
[4] = test system: naturally parakeratotic tail scale skin; assay: Ex vivo mouse tail scale assay; type: cell-based; settings: 4 days ex vivo
Description: 7-9 week old wild type mice of either gender were sacrificed and the tail skin tissue harvested then cultured 4 days on a porous membrane chamber insert with the epidermis exposed to air and dermis side in contact with media drawn through the porous membrane. Various concentrations and combinations of Mesalamine (2 mM and 5 mM) and Acitretin (1 μM) were added to the media or media alone used as a control. Media was refreshed after 48 hrs. Skins were then harvested on the 4 th day and fixed in 4% PFA overnight then stored in 80% Ethanol until processed and embedded in paraffin wax. 8 micron sections were then cut and stained with Haematoxylin and Eosin and analysed. Images were taken from at least 10 scales from 3 mice per treatment condition and the % orthokeratosis measured as defined in the figure legend for FIG. 13.

GRHL3 −/− epidermis = assay: Ex vivo whole mount assay of GRHL3 -/- skin (proxy model of Lamellar Ichthyosis), cornified layer thickness; type: cell-based, mouse; settings: E16.5, 10 mM, 4 days ex vivo
Description: Embryonic back skin was collected at E16.5 from litters generated by GRHL3+/− cross Abca12 GRHL3+/− matings to generate Ichthyosis embryos GRHL3 −/− and control siblings GRHL3+/− and GRHL3+/+. The embryonic skin was then cultured 4 days on a porous membrane chamber insert with the epidermis exposed to air and dermis side in contact with media drawn through the porous membrane to permit maturation and adaptation to air. Skins were then harvested and fixed in 4% PFA for 3-4 hrs then stored in 80% Ethanol until processed and embedded in paraffin wax. 8 micron sections were then cut and stained with Haematoxylin and Eosin and analysed.

[5] = test system: E16.5 embryonic mouse dorsal skin (Lx12/Lx12 HI mutant, Lx12/+, +/+); assay: Ex vivo chamber assay of E16.5 embryonic mouse dorsal skin during Harlequin Ichthyosis (HI) disease acquisition, H&E and immunofluorescent staining; type: cell-based
Excerpt: The mouse strain ‘Abca12^tm1Lex’ NIH-0129 was obtained from Lexicon genetics and are referred to herein as Abca12Lx12/Lx12, or simply Lx12/Lx12, mice. These mice have a puromycin selection cassette-mediated exon 8 disruption and recapitulate the features of HI akin to other Abca12 mutant strains. All animal procedures complied with standards set under Australian guidelines for animal welfare and experiments were subject to Monash University animal welfare ethics review panels.
Anti-cleaved caspase 3 (#9664P) 1:100 (IHC) Cell Signalling Technologies, USA. Anti-filaggrin (PRB-417P) 1: 1000 (IHC) Covance, USA. Anti-involucrin (PRB-140C) 1: 1000 (IHC) Covance, USA. Antikeratin 10 (PRB-159P) 1: 500 (IHC) Covance, USA. Antikeratin 10 (sc-23877) 1: 100 (IHC) Santa Cruz Biotechnology USA. Anti-keratin 14 (LL002) (ab7800) 1: 250-1000 (IHC) Abcam, UK. Anti-loricrin (PRB-145P) 1: 1000 (IHC) Covance, USA. Molecular Probes AlexaFluor A488 and 555 secondary antibodies raised in Donkey, against rabbit or mouse, were used at 1: 600, from Life Technologies. Nuclei stains used included DAPI (Sigma-Aldrich) 1: 1000. DAB staining was performed by the Monash Histology Platform using Leica autostainers and Dako products.
The ability of mesalamine to rescue the impaired differentiation in an HI mouse model, which represents an extremely severe inflammatory skin disease, was tested. Embryonic back skins at E16.5 were harvested from a litter containing wild type, heterozygous and HI embryos. The skin was divided into two pieces and each cultured for 4 days in a standard ex vivo chamber assay, where the skin rests dermis-side down on a chamber insert membrane and draws cell culture media up from the below well, forming an air face on the epidermis side and liquid face for the dermal side, similar to the normal skin environment. Mesalamine was added in the media of one of each pair of skins at 10 mM (the active concentration determined to have most impact in the gut for intestinal diseases).

[6] = Harlequin Ichthyosis (Lx12/Lx12) skins
[7] = control heterozygous Lx12/+ skins
[8] = Lx12/+ skin, 10 mM, 4 days ex vivo
[9] = Lx12/Lx12 skin, 10 mM, 4 days ex vivo

| Compound | Epidermis morphology (Haematoxylin and Eosin) ([1]; Lx12/Lx12 (HI) skin, E18.5, 1 mM) | Epidermis morphology (Haematoxylin and Eosin) ([1]; all genotypes, E18.5, 10 mM) | Cornified layer proportion of skin thickness [2, 6] | Cornified layer proportion of skin thickness [2, 7] | Epidermis morphology (Haematoxylin and Eosin) [3] | Orthokeratosis compared with 1 μM Acitretin ([4]; 2 mM Mesalamine) | Orthokeratosis ([4]; 2 mM and 5 mM Mesalamine in the culture medium) | Cornified layer thickening (GRHL3 −/− epidermis) | Skin differentiation defects in HI ([5]; 10 mM in media, pair matched skins across genotypes) | Epidermis morphology (Haematoxylin and Eosin) ([5]; +/+ wild type skin, 10 mM, 4 days ex vivo) | Apoptosis (cleaved-Caspase-3 positive cells) ([5]; Lx12/+ and Lx12/Lx12 skin, 10 mM, 4 days ex vivo) | Granular layer Filaggrin (FLG) [5, 8] | Keratin 10 (K10) positive keratinocytes [5, 8] | Epidermis morphology (Haematoxylin and Eosin) ([5]; Lx12/Lx12 (HI) skin, 10 mM, 4 days ex vivo) | Granular layer Filaggrin (FLG) [5, 9] | Involucrin (INV) expression [5, 9] | Keratin 10 (K10) positive keratinocytes [5, 9] | Loricrin (LOR) expression [5, 9] | Orthokeratosis ([4]; 1 μM Acitretin) |
| --- | --- | --- | --- | --- | --- | --- | --- | --- | --- | --- | --- | --- | --- | --- | --- | --- | --- | --- | --- |
| Nc1ccc(O)c(C(=O)O)c1 [Mesalamine, 5-aminosalicylic acid] | acquires a more-normal appearance | reducing the keratinocytes accumulating in the spinous layers | reduced the cornified layer proportion to vehicle control levels | reduced the thickness | acquires a more-normal appearance | performing similarly to 1 μM Acitretin | dose dependent increase in orthokeratosis | reduced hyper-thickening of the cornified layer; also recorded: loss of thickening | significantly rescued | did not however appear to greatly effect | apoptosis is reduced | restored | revert to normal levels | acquires a more-normal appearance | partially restored | a more organised, and delayed (granular layer) expression | some modest improvement | a more normal, predominantly granular layer expression |  |
| COc1cc(C)c(/C=C/C(C)=C/C=C/C(C)=C/C(=O)O)c(C)c1C [Acitretin] |  |  | no significant effect | no significant effect |  |  |  |  |  |  |  |  |  |  |  |  |  |  | promoted orthokeratosis |
